Laboratory results taken from patent publication US20110064661A1, “NON-RADIOACTIVE PHOSPHOLIPID COMPOUNDS, COMPOSITIONS, AND METHODS OF USE” (priority 2009, published 2011).

How the values were obtained:
[1] = tested on: A549 cells; test: Uptake and Retention Assay of 125I-CLR1404; format: cell-based, human; details: 24 hours, 0.588-2.156 μM, serum free media
Protocol: The Uptake and Retention Assay was preformed as described previously. Briefly, A549 human NSCLC cells were plated at a density of 150,000 cells/ml in 6-well plates.
Cells were then allowed to adhere overnight. All plates were then treated with the indicated mass of either ^125I-CLR1404 with or without ^127I-CLR1401 as indicated by the experimental parameters.
Cells were incubated in the presence of drug for 24 hrs prior to collection. At 24 hrs post treatment, the media was removed and the cells were washed once with 1 ml of ice cold 1×PBS+1% BSA. The cells were then removed from the plate by trypsinization with 1 ml of 1× Trypsin 1×PBS solution and split into 2 samples of 500 μl each. Both sets of sample were pelleted by centrifugation for 30 seconds at 2000×g at room temperature. The supernatant was removed and discarded.
One pellet for each sample set was resuspended in 200 μl of 1×PBS (Tube 1, Sample 1), and the other pellet was resuspened in 100% EtOH (Tube 2, Sample 1). A 100 μl sample from Tube 1 was taken for evaluation of DNA content in order to determine cell number (data was generated using absorbance at 260 nm in a microplate reader). A 10 μl sample from Tube 2 was taken for evaluation of radioactivity content using a gamma counter. […] All treatments were preformed in Serum Free media. […]

[2] = tested on: active Akt (pAkt, S473); test: Inhibition of Akt activation (pAkt Ser473 sandwich ELISA) in PC-3 cells; format: cell-based; details: Homo sapiens
Protocol: PC-3 cells, obtained from American Type Culture Collection (ATCC), are a human prostate carcinoma cell line. PC-3 cells have a homozygous deletion of PTEN.
(§1) A549 and PC-3 cells were plated at a density of 200,000 cells per ml.
(§2) All treatments were preformed in triplicate.
(§3) A549 and PC-3 cells are treated with ^127I-CLR1401 for 24 hours. • 0, 3, 5, 10 μM of ^127I-CLR1401 • Protein was isolated from treated cells. • The level of activated Akt was determined by examining the phosphorylated (active) form at Ser473 by enzyme linked immunosorbent assay (ELISA). • PathScan Phospho-Akt1 (Ser473) Sandwich ELISA Kit (Cell Signaling #7160). • ELISA controls: • Negative Control: A549 and PC-3 cells treated with 50 μM LY294,002 for 24 hrs. LY294,002 is a specific cell permeable phosphatidylinositol 3-kinase (PI3K) inhibitor that inhibits the activation of Akt by affecting the amount of phosphatidylinositol(3,4,5) trisphosphate produced by PI3K. • Positive Control: A549 and PC-3 cells stimulated with 10 μg/ml Insulin for 24 hrs. • Negative Control: A549 in serum free media. • 1) The ELISA was preformed per the manufacturer's instructions. Briefly, 100 μg of protein from the cell lysates were incubated in the pre-coated 96-well plate overnight at 4° C. The wells were then washed 4 times with 1XWash Buffer (also provided). Then incubated with the primary Akt antibody for 2 hours at 37° C. with 5% CO2 in air. After the primary incubation the plate was then washed 4 times with 1XWash Buffer and incubated with the HRP-linked secondary antibody for 1 hour at 37° C. with 5% CO2 in air. The plate was then washed 4 times with 1× Wash Buffer and developed using the TMB substrate provided. TMB substrate (tetramethylbenzidine) is a colormetric substrate used in the ELISA assay. TMB (3,3″,5,5″-tetramethylbenzidine) is a chromogen that yields a blue color when oxidized with hydrogen peroxide (catalyzed by HRP) with major absorbances at 370 nm and 652 nm. The color then changes to yellow with the addition of sulfuric or phosphoric acid with maximum absorbance at 450 nm. it is used for the detection of target proteins that have been bound to an antibody that contains a Horseradish Peroxidase tag. • After the 10 minute incubation at 37° C. the reaction was stopped by the addition of stop buffer (also provided). The absorbance was then measured at 450 nm using a Synergy HT microplate reader (BioTek). Data are reported as absorbance at 450 nm.

[3] = tested on: active Akt (pAkt, S473); test: Inhibition of Akt activation (pAkt Ser473 sandwich ELISA) in A549 cells; format: cell-based; details: Homo sapiens
Protocol: A549 cells, obtained from American Type Culture Collection (ATCC), are a human non-small cell lung cancer cell line. A549 cells have wild-type functional PTEN.
as §1, §2, §3

[4] = tested on: A549 cells; test: Cell growth inhibition by MTT assay; format: cell-based, human
Protocol: 2. Cell Growth Inhibition by ^127I-CLR1401. • 1) Growth inhibition induced by ^127I-CLR1401 was determined by MTT(3-(4,5-dimethylthiazol-2-yl)-2,5-diphenyl […] bromide) assay. MTT is a pale yellow substrate that is cleaved by living cells to yield a dark blue formazan product.
Briefly, A549 cells were plated at a density of 200,000 cells per well in a six well plate and allowed to adhere overnight.
The cells were then treated with varying concentrations of ^127I-CLR1401 (0.0078, 0.392, 0.784, 1.568, 3.137, 4.705, 7.84, 39.2, 78.4 μM) in triplicate and then collected for the MTT assay at the indicated time points. Cells were then incubated with 0.5 mg/ml MTT in 1×PBS for 3 hours at 37° C. with 5% CO2 in air.
Absorbance was measured at 540 nm using a Synergy HT microplate reader. The absorbance value at 540 nm is directly proportional to the number of viable cells present.

[5] = 3 μM, 24 hours, read-out: Percent Inhibition of Akt
[6] = 5 μM, 24 hours, read-out: Percent Inhibition of Akt
[7] = 10 μM, 24 hours, read-out: Percent Inhibition of Akt

With “18-(p-Iodophenyl)octadecyl phosphocholine [^125I-CLR1404]” the “uptake and retention of 125I-CLR1404 with increasing mass dose of 125I-CLR1404” value [1] was “distinct increase in the amount of compound taken up and retained”.
Work on `C[N+](C)(C)CCOP(=O)([O-])OCCCCCCCCCCCCCCCCCCc1ccc(I)cc1` [^127I-CLR1401, 18-(p-Iodophenyl)octadecyl phosphocholine] yielded an IC50 [2] of 5 µM, an inhibition at 3 µM [2, 5] of 21% and an inhibition at 5 µM [2, 6] of 61%. For the same compound, the inhibition at 10 µM [2, 7] was 97%, the IC50 [3] was 5.9 µM and the inhibition at 3 µM [3, 5] was 26%. For the same compound, the inhibition at 5 µM [3, 6] was 42%, the inhibition at 10 µM [3, 7] was 85% and the IC50 ([4]; Homo sapiens, A549 cells, MTT, read-out: 50% inhibitory concentration for cell growth) was 4.5 µM. For the same compound, the “effect on the growth of A549 cells” value ([4]; low doses, FIG. 5A) was “no significant effect”.
